Measured values reported in PMC8225519, “A semi-mechanistic exposure–response model to assess the effects of verinurad, a potent URAT1 inhibitor, on serum and urine uric acid in patients with hyperuricemia-associated diseases” (Journal of Pharmacokinetics and Pharmacodynamics, 2021).
“And” between values parts separate entries of the source, which are not always exact repeats. Identical values can stand only once. “Also recorded” adds a separate entry of the source. Like-named read-outs stand apart in the source and are kept apart here.

Columns and labels:
URAT1 [1] = target: T1, URAT1 (Homo sapiens, UniProt Q96S37); test: Semi-mechanistic exposure-response uric acid model: verinurad inhibition of uric acid reabsorption (clinical sUA/uUA data); assay type: in vivo
T1 construct: from tissue; host or cells: kidney (proximal tubule) of human study subjects, in vivo
T1 sequence (Q96S37 1-553): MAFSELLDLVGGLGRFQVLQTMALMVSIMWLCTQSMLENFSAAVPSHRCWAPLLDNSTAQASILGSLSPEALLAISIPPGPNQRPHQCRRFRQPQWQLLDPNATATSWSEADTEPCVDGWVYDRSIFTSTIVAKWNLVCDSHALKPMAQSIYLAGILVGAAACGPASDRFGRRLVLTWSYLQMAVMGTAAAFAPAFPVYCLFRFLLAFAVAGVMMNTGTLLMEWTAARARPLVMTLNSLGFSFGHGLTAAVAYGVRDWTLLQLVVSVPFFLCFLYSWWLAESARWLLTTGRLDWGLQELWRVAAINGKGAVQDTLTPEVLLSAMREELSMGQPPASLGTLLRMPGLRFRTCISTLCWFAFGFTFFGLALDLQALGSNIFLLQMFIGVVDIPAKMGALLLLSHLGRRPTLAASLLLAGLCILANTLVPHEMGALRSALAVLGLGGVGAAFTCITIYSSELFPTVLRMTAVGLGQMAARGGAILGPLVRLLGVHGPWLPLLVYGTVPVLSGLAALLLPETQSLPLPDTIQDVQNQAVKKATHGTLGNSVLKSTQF
Excerpt: (§1) All available clinical data from studies where modified release (MR4) or extended release (ER8) verinurad formulations were used in the present analysis, comprising 12 clinical studies of verinurad and including single ascending dose (SAD), multiple ascending dose (MAD), drug-drug interaction (DDI), and several phase 2a studies in several patient populations. […] In total, 434 individuals were incorporated in the integrated analysis.
(§2) To model the uric acid in circulation and urine, a semi-mechanistic model of uric acid disposition was used as a structural model [23], and is reproduced here for the reader’s convenience.
Key kinetic processes that constitute renal handling of uric acid are glomerular filtration of uric acid and renal excretion of uric acid. Uric acid is freely filtered into the proximal tubule and is reabsorbed via urate transporters back into the systemic circulation [25]. The input rate of filtration (also known as the filtered load) of uric acid into the kidney from the circulation is denoted FLin (mg/h), which is modelled to be equal to the concentration of uric acid in the systemic compartment multiplied by the glomerular filtration flow rate (GFR). In this work, the GFR is approximated using the CKD-EPI formula [26]. In the following equations, estimated GFR (eGFR) is given in L/h (1 ml/min/1.73 m^2 = 0.06 L/h) to have consistent units.
The rate of renal excretion of uric acid is calculated as the product of the input filtration rate and the fractional excretion coefficient (FEUA).6 RR=FLin∗FEUA=eGFR∗CUA∗FEUA
Verinurad increases the excretion rate by inhibiting the reabsorption of uric acid back to the circulation. An Emax model is used to describe the stimulating drug action of the FEUA according to the relationship:7 RR=eGFR∗CUA∗FEUA+EmaxCV/EC50+CV where CV denotes the plasma concentration of verinurad. The value FEUA + Emax is the maximum possible fractional excretion of uric acid achieved with a very large dose of verinurad. The value of EC50 is the plasma concentration of verinurad that results in half-maximal inhibition of reabsorption, i.e. when the fractional excretion is FEUA + Emax/2. The renal excretion rate RR is the rate of accumulation of uric acid in the bladder and can be indirectly estimated by measuring accumulation of uric acid in final, collected urine.
(§3) The full system of differential equations of the model are the following, where A1 is the amount of uric acid (in mg) in the systemic circulation and A2 is the cumulative amount of uric acid (in mg) excreted in urine:8 dA1/dt=kin1-EmaxCX/EC50+CX-CLIA1/V1-eGFR∗A1/V1∗FEUA+EmaxCV/EC50+CVdA2/dt=eGFR∗A1/V1∗FEUA+EmaxCV/EC50+CVA10=V1kin/CLI+eGFR∗FEUAA20=0 where the initial condition A10 is calculated from steady-state assumption (solving the equation dA1/dt=0 ), and the initial condition for the cumulative amount in urine, A20, is set to zero.
In this work, we consider the extension to a mixed-effects model, with the ability to describe both mean response and variability in the population. In a mixed-effects model, parameters are modeled with statistical distributions to describe variability between individuals. We specified lognormal distributions for model parameters θi as follows:10 θi=θpopexpη where θpop is the typical value of the parameter in the population (median of the population distribution), and η is the random effect, normally distributed with mean zero and standard deviation ω. […]

URAT1 [2] = target: T1, URAT1; set-up: method as in PMID 21148271, PMID 18492088; details: fixed, not estimated; consistent with FEUA in URAT1 loss of function mutations; cited from earlier work
xanthine oxidase (XO) [3] = target: T2, xanthine oxidase (XO) (Homo sapiens, UniProt P47989); test: Semi-mechanistic exposure-response uric acid model: XOI inhibition of uric acid production rate (clinical sUA/uUA data); assay type: in vivo
T2 construct: from tissue
Excerpt: as §1, §2
The key kinetic processes that constitute mass balance of uric acid in the body are production of uric acid, intestinal clearance, and renal clearance. The rate of change (mg/h) of the amount of uric acid in the systemic compartment A1 (mg) is given by the differential equation:1 dA1/dt=RP-RI-RR, where RP is the production rate, RI is intestinal elimination rate and RR is the renal excretion rate. The rate of intestinal elimination of uric acid (mg/h) is described by a first order kinetic process with respect to concentration of uric acid in the systemic compartment CUA (mg/L) according to:2 RI=CLI∗CUA where CLI is the intestinal clearance of uric acid (L/h). Concentration of uric acid in the systemic compartment is given by:3 CUA=A1/V1 where V1 is the volume of distribution (L).
as §3
In this work, we consider the extension to a mixed-effects model, with the ability to describe both mean response and variability in the population. In a mixed-effects model, parameters are modeled with statistical distributions to describe variability between individuals. We specified lognormal distributions for model parameters θi as follows:10 θi=θpopexpη where θpop is the typical value of the parameter in the population (median of the population distribution), and η is the random effect, normally distributed with mean zero and standard deviation ω.
The residual error model for concentration of uric acid in serum was an additive model (i.e. b = 0); for uric acid in urine, a combined additive and proportional model was used. […]

xanthine oxidase (XO) [4] = target: T2, xanthine oxidase (XO); set-up: method as in Aksenov et al. 2018 [23]; details: fixed, not estimated; ref Aksenov et al. 2018 [23]; cited from earlier work
[5] = Population pharmacokinetic model, oxypurinol; assay type: in vivo, human
Excerpt: CL = CLTYP * (1 + log(1+k*DOSE_[…]))
Where CLTYP is typical value of clearance and k is a coefficient for verinurad dose (1/mg).

T2 sequence (P47989 whole entry): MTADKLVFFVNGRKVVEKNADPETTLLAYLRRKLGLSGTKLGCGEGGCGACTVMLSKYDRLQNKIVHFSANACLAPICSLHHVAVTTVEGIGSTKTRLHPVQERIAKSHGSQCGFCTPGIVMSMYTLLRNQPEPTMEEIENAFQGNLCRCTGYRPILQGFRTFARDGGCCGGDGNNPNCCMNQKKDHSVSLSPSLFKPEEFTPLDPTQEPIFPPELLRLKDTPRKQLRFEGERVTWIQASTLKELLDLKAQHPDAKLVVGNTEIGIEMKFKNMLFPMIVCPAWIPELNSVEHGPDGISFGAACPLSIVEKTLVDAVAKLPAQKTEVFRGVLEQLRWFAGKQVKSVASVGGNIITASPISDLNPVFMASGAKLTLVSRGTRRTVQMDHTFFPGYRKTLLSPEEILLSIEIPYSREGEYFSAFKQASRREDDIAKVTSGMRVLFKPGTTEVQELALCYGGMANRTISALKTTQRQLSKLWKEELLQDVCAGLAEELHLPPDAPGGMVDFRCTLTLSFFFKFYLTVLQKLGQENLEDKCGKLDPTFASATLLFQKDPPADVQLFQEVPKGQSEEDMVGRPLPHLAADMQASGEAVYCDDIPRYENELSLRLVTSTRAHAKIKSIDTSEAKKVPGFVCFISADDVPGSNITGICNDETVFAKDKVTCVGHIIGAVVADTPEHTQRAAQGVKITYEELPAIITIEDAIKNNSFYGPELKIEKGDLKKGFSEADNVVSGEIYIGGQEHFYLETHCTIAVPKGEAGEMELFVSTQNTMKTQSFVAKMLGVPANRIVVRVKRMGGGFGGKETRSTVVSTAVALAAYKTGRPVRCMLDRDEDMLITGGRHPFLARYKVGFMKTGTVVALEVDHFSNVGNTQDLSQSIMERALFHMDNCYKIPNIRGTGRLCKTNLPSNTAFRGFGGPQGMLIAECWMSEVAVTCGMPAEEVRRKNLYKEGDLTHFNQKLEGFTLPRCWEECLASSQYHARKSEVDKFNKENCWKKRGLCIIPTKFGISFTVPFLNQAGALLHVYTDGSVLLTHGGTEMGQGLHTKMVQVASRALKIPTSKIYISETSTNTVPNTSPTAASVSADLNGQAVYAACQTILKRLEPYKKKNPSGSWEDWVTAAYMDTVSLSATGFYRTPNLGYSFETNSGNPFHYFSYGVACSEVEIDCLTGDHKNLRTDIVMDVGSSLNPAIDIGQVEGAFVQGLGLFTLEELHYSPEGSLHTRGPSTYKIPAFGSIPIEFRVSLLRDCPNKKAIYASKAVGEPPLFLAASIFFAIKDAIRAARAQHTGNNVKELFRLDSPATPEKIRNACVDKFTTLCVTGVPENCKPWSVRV

SMILES | EC50 (URAT1 [1]; plasma concentration giving half-maximal inhibition of reabsorption, typical value, healthy volunteers, read-out: Verinurad EC50 (reducing uric acid reuptake) (converted)) | EC50 (URAT1 [1]; plasma concentration, symptomatic hyperuricemic (gout) patients, read-out: Verinurad EC50, symptomatic hyperuricemic (gout) subjects (converted)) | Verinurad EC50 difference, asymptomatic hyperuricemic patients versus healthy volunteers (URAT1 [1]; studies D5495C00001 and D5495C00007) | Emax (maximum increase in fractional excretion of uric acid) (URAT1 [2]) | EC50 (xanthine oxidase (XO) [3]; plasma concentration giving half-maximal inhibition of production rate, typical value, read-out: EC50 (reducing uric acid production) (converted)) | Emax (maximum inhibition of uric acid production) (xanthine oxidase (XO) [4]) | Decrease of oxypurinol exposure when administered together with verinurad ([5]; 12 mg verinurad, according to the model) | Vd ([5]; human, in vivo, oral, read-out: Central volume of distribution) | Absorption rate constant ([5]; oxypurinol after allopurinol dosing, popPK estimate) | EC50 (xanthine oxidase (XO) [3]) | Febuxostat EC50 difference, healthy volunteers versus hyperuricemic patients (xanthine oxidase (XO) [3]; human, in vivo)
CC(C)(Sc1ccncc1-c1ccc(C#N)c2ccccc12)C(=O)O [verinurad] | 83.2 nM and 84.4 nM | 106 nM and 107 nM | no significant difference | 0.7 | – | – | – | – | – | – | –
O=c1[nH]c(=O)c2c[nH]nc2[nH]1 [oxypurinol] | – | – | – | – | 85700 nM | 0.84 | approximately 30% | 45.7 L | 0.3343 h⁻¹ | – | –
Cc1nc(-c2ccc(OCC(C)C)c(C#N)c2)sc1C(=O)O [febuxostat] | – | – | – | – | – | 1 | – | – | – | 405 nM | no differences; also recorded: not found to be significantly different
